In assay [1] the target is Glucagon-like peptide 1 receptor (Homo sapiens, UniProt P43220). Description: Agonist activity at GLP1R expressed in HEK293 cells assessed as stimulation of cAMP production by luciferase reporter gene assay. It counts as functional, cell-based. For orientation: Cyclic AMP is a second messenger, typically raised through Gs and lowered through Gi signalling.
In the next assay the target is Glucagon receptor (Homo sapiens, UniProt P47871). Description: Agonist activity at GCGR expressed in HEK293 cells assessed as stimulation of cAMP production by luciferase reporter gene assay. It is filed as functional, cell-based.
Glucagon receptor, sequence (P47871 whole entry): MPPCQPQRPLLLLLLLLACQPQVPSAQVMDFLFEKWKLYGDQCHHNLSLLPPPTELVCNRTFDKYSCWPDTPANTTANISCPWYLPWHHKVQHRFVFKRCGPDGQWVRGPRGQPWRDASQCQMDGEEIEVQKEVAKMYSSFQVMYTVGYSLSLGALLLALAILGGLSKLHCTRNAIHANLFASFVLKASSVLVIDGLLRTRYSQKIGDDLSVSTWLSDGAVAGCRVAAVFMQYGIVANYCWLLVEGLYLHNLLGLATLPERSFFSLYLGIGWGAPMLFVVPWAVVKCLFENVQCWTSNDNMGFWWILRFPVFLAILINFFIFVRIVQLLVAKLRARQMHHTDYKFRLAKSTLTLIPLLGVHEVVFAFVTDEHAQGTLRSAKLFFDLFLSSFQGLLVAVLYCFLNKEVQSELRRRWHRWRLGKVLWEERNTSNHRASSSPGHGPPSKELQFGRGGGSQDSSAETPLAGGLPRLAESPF

Glucagon-like peptide 1 receptor, sequence (P43220 whole entry): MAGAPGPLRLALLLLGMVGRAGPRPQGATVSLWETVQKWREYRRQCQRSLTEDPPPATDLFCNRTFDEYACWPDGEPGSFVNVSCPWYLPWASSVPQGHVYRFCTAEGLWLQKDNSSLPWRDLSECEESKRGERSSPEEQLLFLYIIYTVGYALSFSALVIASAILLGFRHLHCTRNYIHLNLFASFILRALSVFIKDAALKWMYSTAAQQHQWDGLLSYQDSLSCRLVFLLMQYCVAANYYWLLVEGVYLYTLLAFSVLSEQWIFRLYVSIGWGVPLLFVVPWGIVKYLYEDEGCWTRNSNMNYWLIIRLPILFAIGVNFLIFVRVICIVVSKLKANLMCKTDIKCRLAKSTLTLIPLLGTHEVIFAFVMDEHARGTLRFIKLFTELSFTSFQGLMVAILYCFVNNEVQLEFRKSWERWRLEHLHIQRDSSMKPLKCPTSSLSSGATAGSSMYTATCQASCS

Regarding `CSCC[C@H](NC(=O)[C@H](CC(C)C)NC(=O)[C@H](Cc1c[nH]c2ccccc12)NC(=O)[C@H](CCC(N)=O)NC(=O)[C@@H](NC(=O)[C@H](Cc1ccccc1)NC(=O)[C@H](CC(=O)O)NC(=O)[C@H](CCC(N)=O)NC(=O)[C@H](C)NC(=O)[C@H](CCCNC(=N)N)NC(=O)[C@H](CCCNC(=N)N)NC(=O)[C@H](CO)NC(=O)[C@H](CC(=O)O)NC(=O)[C@H](CC(C)C)NC(=O)[C@H](Cc1ccc(O)cc1)NC(=O)[C@H](CCCCN)NC(=O)[C@H](CO)NC(=O)[C@H](Cc1ccc(O)cc1)NC(=O)[C@H](CC(=O)O)NC(=O)[C@H](CO)NC(=O)[C@@H](NC(=O)[C@H](Cc1ccccc1)NC(=O)[C@@H](NC(=O)CNC(=O)[C@H](CCC(N)=O)NC(=O)[C@H](CO)N[C@@H](Cc1cnc[nH]1)C(=O)O)[C@@H](C)O)[C@@H](C)O)C(C)C)C(=O)N[C@@H](CC(N)=O)C(=O)N[C@H](C(N)=O)[C@@H](C)O`, the EC50 in assay [1] is 600 pM; on Glucagon receptor it was 150 pM.

Regarding `CSCC[C@H](NC(=O)[C@H](CC(C)C)NC(=O)[C@H](Cc1c[nH]c2ccccc12)NC(=O)[C@H](CCC(N)=O)NC(=O)[C@@H](NC(=O)[C@H](Cc1ccccc1)NC(=O)[C@H](CC(=O)O)NC(=O)[C@H](CCC(N)=O)NC(=O)[C@H](C)NC(=O)[C@H](CCCN=C(N)N)NC(=O)[C@H](CCCN=C(N)N)NC(=O)[C@H](CCC(=O)O)NC(=O)[C@H](CC(=O)O)NC(=O)[C@H](CC(C)C)NC(=O)[C@H](Cc1ccc(O)cc1)NC(=O)[C@H](CCCCN)NC(=O)[C@H](CO)NC(=O)[C@H](Cc1ccc(O)cc1)NC(=O)[C@H](CC(=O)O)NC(=O)[C@H](CO)NC(=O)[C@@H](NC(=O)[C@H](Cc1ccccc1)NC(=O)[C@@H](NC(=O)CNC(=O)[C@H](CCC(N)=O)NC(=O)[C@H](CO)N[C@@H](Cc1cnc[nH]1)C(=O)O)[C@@H](C)O)[C@@H](C)O)C(C)C)C(=O)N[C@@H](CC(N)=O)C(=O)N[C@H](C(N)=O)[C@@H](C)O`, the half-maximal effective concentration (EC50) in assay [1] was found to be 170 pM; on Glucagon receptor, 49 pM.

Consider `CSCC[C@H](NC(=O)[C@H](CC(C)C)NC(=O)[C@H](Cc1c[nH]c2ccccc12)NC(=O)[C@H](CCC(N)=O)NC(=O)[C@@H](NC(=O)[C@H](Cc1ccccc1)NC(=O)[C@H](CC(=O)O)NC(=O)[C@H](CCC(N)=O)NC(=O)[C@H](C)NC(=O)[C@H](CCCN=C(N)N)NC(=O)[C@H](CCCN=C(N)N)NC(=O)[C@H](CCC(=O)O)NC(=O)[C@H](CC(=O)O)NC(=O)[C@H](CC(C)C)NC(=O)[C@H](Cc1ccc(O)cc1)NC(=O)[C@H](CCCCN)NC(=O)[C@H](CO)NC(=O)[C@H](Cc1ccc(O)cc1)NC(=O)[C@H](CC(=O)O)NC(=O)[C@H](CO)NC(=O)[C@@H](NC(=O)[C@H](Cc1ccccc1)NC(=O)[C@@H](NC(=O)CNC(=O)[C@H](CCC(N)=O)NC(=O)[C@H](CO)N[C@@H](Cc1cnc[nH]1)C(=O)O)[C@@H](C)O)[C@@H](C)O)C(C)C)C(=O)N[C@@H](CC(N)=O)C(=O)N[C@H](C(=O)O)[C@@H](C)O`, for which the EC50 in assay [1] is 1100 pM; at Glucagon receptor, 53 pM.

Take `CSCC[C@H](NC(=O)[C@H](CC(C)C)NC(=O)[C@H](Cc1c[nH]c2ccccc12)NC(=O)[C@H](CCC(N)=O)NC(=O)[C@@H](NC(=O)[C@H](Cc1ccccc1)NC(=O)[C@H](CC(=O)O)NC(=O)[C@H](CCC(N)=O)NC(=O)[C@H](C)NC(=O)[C@H](CCCNC(=N)N)NC(=O)[C@H](CCCNC(=N)N)NC(=O)[C@H](Cc1c[nH]cn1)NC(=O)[C@H](CC(=O)O)NC(=O)[C@H](CC(C)C)NC(=O)[C@H](Cc1ccc(O)cc1)NC(=O)[C@H](CCCCN)NC(=O)[C@H](CO)NC(=O)[C@H](Cc1ccc(O)cc1)NC(=O)[C@H](CC(=O)O)NC(=O)[C@H](CO)NC(=O)[C@@H](NC(=O)[C@H](Cc1ccccc1)NC(=O)[C@@H](NC(=O)CNC(=O)[C@H](CCC(N)=O)NC(=O)[C@H](CO)N[C@@H](Cc1cnc[nH]1)C(=O)O)[C@@H](C)O)[C@@H](C)O)C(C)C)C(=O)N[C@@H](CC(N)=O)C(=O)N[C@H](C(N)=O)[C@@H](C)O`: the EC50 in assay [1] was 230 pM; at Glucagon receptor it was 100 pM.

Regarding `CSCC[C@H](NC(=O)[C@H](CC(C)C)NC(=O)[C@H](Cc1c[nH]c2ccccc12)NC(=O)[C@H](CCC(N)=O)NC(=O)[C@@H](NC(=O)[C@H](Cc1ccccc1)NC(=O)[C@H](CC(=O)O)NC(=O)[C@H](CCC(N)=O)NC(=O)[C@H](C)NC(=O)[C@H](CCCN=C(N)N)NC(=O)[C@H](CCCN=C(N)N)NC(=O)[C@H](CCC(N)=O)NC(=O)[C@H](CC(=O)O)NC(=O)[C@H](CC(C)C)NC(=O)[C@H](Cc1ccc(O)cc1)NC(=O)[C@H](CCCCN)NC(=O)[C@H](CO)NC(=O)[C@H](Cc1ccc(O)cc1)NC(=O)[C@H](CC(=O)O)NC(=O)[C@H](CO)NC(=O)[C@@H](NC(=O)[C@H](Cc1ccccc1)NC(=O)[C@@H](NC(=O)CNC(=O)[C@H](CCC(N)=O)NC(=O)[C@H](CO)N[C@@H](Cc1cnc[nH]1)C(=O)O)[C@@H](C)O)[C@@H](C)O)C(C)C)C(=O)N[C@@H](CC(N)=O)C(=O)N[C@H](C(N)=O)[C@@H](C)O`, in assay [1], the concentration giving a half-maximal response (EC50) was determined as 260 pM.

For `CSCC[C@H](NC(=O)[C@H](CC(C)C)NC(=O)[C@H](Cc1c[nH]c2ccccc12)NC(=O)[C@H](CCC(N)=O)NC(=O)[C@@H](NC(=O)[C@H](Cc1ccccc1)NC(=O)[C@H](CC(=O)O)NC(=O)[C@H](CCC(N)=O)NC(=O)[C@H](C)NC(=O)[C@H](CCCNC(=N)N)NC(=O)[C@H](CCCNC(=N)N)NC(=O)C[C@H](CCC(=O)O)NC(=O)[C@H](CC(=O)O)NC(=O)[C@H](CC(C)C)NC(=O)[C@H](Cc1ccc(O)cc1)NC(=O)[C@H](CCCCN)NC(=O)[C@H](CO)NC(=O)[C@H](Cc1ccc(O)cc1)NC(=O)[C@H](CC(=O)O)NC(=O)[C@H](CO)NC(=O)[C@@H](NC(=O)[C@H](Cc1ccccc1)NC(=O)[C@@H](NC(=O)CNC(=O)[C@H](CCC(N)=O)NC(=O)[C@H](CO)N[C@@H](Cc1cnc[nH]1)C(=O)O)[C@@H](C)O)[C@@H](C)O)C(C)C)C(=O)N[C@@H](CC(N)=O)C(=O)N[C@H](C(N)=O)[C@@H](C)O`, the EC50 in assay [1] turned out to be 130 pM; on Glucagon receptor, 54 pM.

Consider `CSCC[C@H](NC(=O)[C@H](CC(C)C)NC(=O)[C@H](Cc1c[nH]c2ccccc12)NC(=O)[C@H](CCC(N)=O)NC(=O)[C@@H](NC(=O)[C@H](Cc1ccccc1)NC(=O)[C@H](CC(=O)O)NC(=O)[C@H](CCC(N)=O)NC(=O)[C@H](C)NC(=O)[C@H](CCCNC(=N)N)NC(=O)[C@H](CCCNC(=N)N)NC(=O)[C@H](CCS(=O)(=O)O)NC(=O)[C@H](CC(=O)O)NC(=O)[C@H](CC(C)C)NC(=O)[C@H](Cc1ccc(O)cc1)NC(=O)[C@H](CCCCN)NC(=O)[C@H](CO)NC(=O)[C@H](Cc1ccc(O)cc1)NC(=O)[C@H](CC(=O)O)NC(=O)[C@H](CO)NC(=O)[C@@H](NC(=O)[C@H](Cc1ccccc1)NC(=O)[C@@H](NC(=O)CNC(=O)[C@H](CCC(N)=O)NC(=O)[C@H](CO)N[C@@H](Cc1cnc[nH]1)C(=O)O)[C@@H](C)O)[C@@H](C)O)C(C)C)C(=O)N[C@@H](CC(N)=O)C(=O)N[C@H](C(N)=O)[C@@H](C)O`, for which the concentration giving a half-maximal response (EC50) worked out at 120 pM in assay [1] and 100 pM on Glucagon receptor.

In general, EC50 refers to the concentration at which the effect is half-maximal.

(Values after ChEMBL document CHEMBL1221226 (Nat Chem Biol, 2009).)
